These results are taken from patent publication US20260085062A1, “NOVEL COMPOUNDS AS CK2 INHIBITORS” (Cambridge Enterprise Limited, priority 2022, published 2026).

The target in one experiment is T1, CK2α (Homo sapiens, UniProt P68400).
T1 construct: CK2α (residues 2-329) was produced in Escherichia coli BL21 (DE3) for kinase activity screening; His6 (N, cleaved yes); made in house; host or cells: Escherichia coli BL21 (DE3)
T1 sequence (P68400 2-329): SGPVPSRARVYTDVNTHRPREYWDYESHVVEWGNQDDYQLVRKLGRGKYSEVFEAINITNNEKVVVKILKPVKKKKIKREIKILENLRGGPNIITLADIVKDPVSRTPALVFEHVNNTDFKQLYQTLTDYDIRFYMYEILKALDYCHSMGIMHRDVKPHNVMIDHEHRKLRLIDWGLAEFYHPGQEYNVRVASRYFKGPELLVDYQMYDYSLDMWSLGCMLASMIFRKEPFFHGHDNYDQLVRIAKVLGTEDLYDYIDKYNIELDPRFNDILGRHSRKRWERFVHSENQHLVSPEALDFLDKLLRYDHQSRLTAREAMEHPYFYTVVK
In words: Biochemical assay for inhibitors of CK2α kinase activity (ADP-Glo). Particulars: 0.2 nM CK2α, 50 μM peptide substrate, 15 μM ATP, read-out: Assay 1: CK2α Enzyme IC50.

The next experiment deals with T2, CLK2 (Homo sapiens, UniProt P49760).
T2 construct: purchased Carna Biosciences 04-127
T2 sequence (P49760 whole entry): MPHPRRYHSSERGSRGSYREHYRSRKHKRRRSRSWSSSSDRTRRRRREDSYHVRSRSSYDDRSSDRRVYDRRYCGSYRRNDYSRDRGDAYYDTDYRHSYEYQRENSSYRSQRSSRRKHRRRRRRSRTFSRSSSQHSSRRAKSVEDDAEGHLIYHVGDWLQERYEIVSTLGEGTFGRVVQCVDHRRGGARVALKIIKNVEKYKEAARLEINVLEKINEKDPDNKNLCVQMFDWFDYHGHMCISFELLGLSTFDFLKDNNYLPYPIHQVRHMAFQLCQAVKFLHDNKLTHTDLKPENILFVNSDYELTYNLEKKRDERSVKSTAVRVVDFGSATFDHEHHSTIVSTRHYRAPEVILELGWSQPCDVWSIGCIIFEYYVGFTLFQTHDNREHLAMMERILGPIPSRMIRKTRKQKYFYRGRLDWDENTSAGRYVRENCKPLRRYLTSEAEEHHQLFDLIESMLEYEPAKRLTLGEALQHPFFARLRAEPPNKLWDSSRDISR
In words: Biochemical assay for inhibitors of CLK2 kinase activity (ADP-Glo). The settings on record: 20 nM CLK2, 50 μM peptide substrate, 100 μM ATP, read-out: Assay 2: CLK2 Enzyme IC50. (In general: In ADP-Glo the light output rises with the ADP produced.)

In another experiment the target is T3, intracellular CK2α (Homo sapiens, UniProt P19784).
T3 construct: host or cells: HCT116 (ATCC CCL-247)
T3 sequence (P19784 whole entry): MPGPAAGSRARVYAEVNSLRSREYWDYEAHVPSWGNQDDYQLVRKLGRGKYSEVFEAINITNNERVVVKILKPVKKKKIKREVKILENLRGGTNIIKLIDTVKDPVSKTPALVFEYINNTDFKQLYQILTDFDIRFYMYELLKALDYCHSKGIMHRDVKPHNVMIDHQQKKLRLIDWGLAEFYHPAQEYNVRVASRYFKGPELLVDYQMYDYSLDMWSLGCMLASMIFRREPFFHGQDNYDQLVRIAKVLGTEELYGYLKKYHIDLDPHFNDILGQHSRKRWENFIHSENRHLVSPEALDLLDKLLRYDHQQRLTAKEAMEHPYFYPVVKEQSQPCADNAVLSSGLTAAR
In words: Cell-based NanoBRET assay for inhibitor binding to intracellular CK2α. Particulars: HCT116 cells transiently transfected with CSNK2A2-NanoLuc fusion vector; Tracer K-5; 2 h; read-out: Assay 3: NanoBRET ™ assay for binding to intracellular CK2α. In a few lines:
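Apparent affinity came from BRET ratio (acceptor/donor ×1,000), with donor read at 450 nm and acceptor at 610 or 630 nm. Compounds competed off a tracer added at fixed concentration to cells carrying a NanoLuc-CK2α fusion.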
Background: Bioluminescence resonance energy transfer reports proximity on the nanometre scale.

With `N#CCc1cccc(CNCCC(=O)NCCCNc2cc(-n3cnnc3)cc3[nH]ncc23)c1` [Example 47, N-(3-((6-(4H-1,2,4-triazol-4-yl)-1H-indazol-4-yl)amino)propyl)-3-((3-(cyanomethyl)benzyl)amino)propanamide], the IC50 is 2.65 nM at CK2α, 133 nM at CLK2 and 12000 nM at intracellular CK2α.

With `O=C(COCCCCNCc1ccc(OC(F)(F)F)c(Cl)c1)Nc1cc(-n2cnnc2)cc2[nH]ncc12` [Example 48, N-(6-(4H-1,2,4-triazol-4-yl)-1H-indazol-4-yl)-2-(4-((3-chloro-4-(trifluoromethoxy)benzyl)amino)butoxy)acetamide], the IC50 on CK2α is 20.3 nM; on CLK2 it was 993 nM; at intracellular CK2α, 2750 nM.

With `FC(F)(F)c1ccc2[nH]c(CNCCCCOCCNc3cc(-n4cnnc4)cc4[nH]ncc34)cc2c1` [Example 49, 6-(4H-1,2,4-triazol-4-yl)-N-(2-(4-(((5-(trifluoromethyl)-1H-indol-2-yl)methyl)amino)butoxy)ethyl)-1H-indazol-4-amine], the IC50 on CK2α is 0.44 nM; on CLK2, 90.5 nM; on intracellular CK2α it was 106 nM.

On to `Cn1c(CNCCCCOCCNc2cc(-n3cnnc3)cc3[nH]ncc23)cc2ccc(Cl)cc21` [Example 50, N-(2-(4-(((6-chloro-1-methyl-1H-indol-2-yl)methyl)amino)butoxy)ethyl)-6-(4H-1,2,4-triazol-4-yl)-1H-indazol-4-amine], for which the values for the IC50 on CK2α, on CLK2 and on intracellular CK2α were 2.2 nM, 94 nM and 153 nM, respectively.

Turning to `Cn1c(CNCCCCOCCNc2cc(-n3cnnc3)cc3[nH]ncc23)cc2cc(C(F)(F)F)ccc21` [Example 51, N-(2-(4-(((1-methyl-5-(trifluoromethyl)-1H-indol-2-yl)methyl)amino)butoxy)ethyl)-6-(4H-1,2,4-triazol-4-yl)-1H-indazol-4-amine], the IC50 at CK2α came out at 0.71 nM; at CLK2, 225 nM; at intracellular CK2α it was 72.1 nM.

Turning to `Clc1ccc2cc(CNCCCCOCCNc3cc(-n4cnnc4)cc4[nH]ncc34)[nH]c2c1` [Example 52, N-(2-(4-(((6-chloro-1H-indol-2-yl)methyl)amino)butoxy)ethyl)-6-(4H-1,2,4-triazol-4-yl)-1H-indazol-4-amine], the IC50 at CK2α stood at 1.43 nM; at CLK2 it was 38.4 nM; on intracellular CK2α, 294 nM.

Turning to `c1cc2[nH]c(CNCCCCOCCNc3cc(-n4cnnc4)cc4[nH]ncc34)cc2cc1OC1CCC1` [Example 53, N-(2-(4-(((5-cyclobutoxy-1H-indol-2-yl)methyl)amino)butoxy)ethyl)-6-(4H-1,2,4-triazol-4-yl)-1H-indazol-4-amine], the IC50 at CK2α came to 0.33 nM; on CLK2 it was 119 nM; at intracellular CK2α it was 159 nM.

In the case of `c1cc2[nH]c(CNCCCCOCCOc3cc(-c4cnoc4)cc4[nH]ncc34)cc2cc1OC1CCC1` [Example 54, N-((5-cyclobutoxy-1H-indol-2-yl)methyl)-4-(2-((6-(isoxazol-4-yl)-1H-indazol-4-yl)oxy)ethoxy)butan-1-amine], the IC50 was determined as 1.44 nM on CK2α, 217 nM on CLK2 and 128 nM at intracellular CK2α.

Consider `c1cc(-c2cc(OCCOCCCCNCc3cc4cc(OC5CCC5)ccc4[nH]3)c3cn[nH]c3c2)cnn1` [Example 55, N-((5-cyclobutoxy-1H-indol-2-yl)methyl)-4-(2-((6-(pyridazin-4-yl)-1H-indazol-4-yl)oxy)ethoxy)butan-1-amine], for which the IC50 at CK2α is 1.25 nM; at CLK2, 4740 nM; at intracellular CK2α it was 149 nM.

As to `FC(F)(F)c1ccc2[nH]c(CNCCCCOCCOc3cc(-c4ccnnc4)cc4[nH]ncc34)cc2c1` [Example 56, 4-(2-((6-(pyridazin-4-yl)-1H-indazol-4-yl)oxy)ethoxy)-N-((5-(trifluoromethyl)-1H-indol-2-yl)methyl)butan-1-amine], the IC50 was found to be 6.59 nM on CK2α, 3150 nM at CLK2 and 387 nM on intracellular CK2α.

Turning to `c1cc(-c2cc(NCCOCCCCNCc3cc4cc(OC5CCC5)ccc4[nH]3)c3cn[nH]c3c2)cnn1` [Example 57, N-(2-(4-(((5-cyclobutoxy-1H-indol-2-yl)methyl)amino)butoxy)ethyl)-6-(pyridazin-4-yl)-1H-indazol-4-amine], the IC50 on CK2α is 0.6 nM; at CLK2, 781 nM; at intracellular CK2α it was 69.8 nM.

Consider `O=C(CCNCc1ccc(-c2ccccc2CO)c(Cl)c1)NCCCNc1cc(-n2cnnc2)cc2[nH]ncc12` [Example 58, N-(3-((6-(4H-1,2,4-triazol-4-yl)-1H-indazol-4-yl)amino)propyl)-3-(((2-chloro-2′-(hydroxymethyl)-[1,1′-biphenyl]-4-yl)methyl)amino)propanamide], for which the IC50 at CK2α worked out at 0.28 nM; at CLK2, 40.9 nM; on intracellular CK2α, 9290 nM.

In the case of `O=C(CCNCc1ccc(-c2ccccc2)c(Cl)c1)NCCCNc1cccc2[nH]ncc12` [Example 61, N-(3-((1H-indazol-4-yl)amino)propyl)-3-(((2-chloro-[1,1′-biphenyl]-4-yl)methyl)amino)propenamide], the IC50 on CK2α was found to be 104 nM; at CLK2 it was 3470 nM; at intracellular CK2α, 176 nM.

With `CN(C)C(=O)c1cc(NCCCNC(=O)CCNCc2ccc(-c3ccccc3)c(Cl)c2)c2cn[nH]c2c1` [Example 62, 4-((3-(3-(((2-chloro-[1,1'-biphenyl]-4-yl)methyl)amino)propanamido)propyl)amino)-N,N-dimethyl-1H-indazole-6-carboxamide], the values for the IC50 at CK2α, at CLK2 and at intracellular CK2α were 182 nM, 14300 nM and 29600 nM, respectively.

As for `O=C(CCNCc1ccc(-c2ccccc2)c(Cl)c1)NCCCNc1cc(CO)cc2[nH]ncc12` [Example 63, 3-(((2-chloro-[1,1′-biphenyl]-4-yl)methyl)amino)-N-(3-((6-(hydroxymethyl)-1H-indazol-4-yl)amino)propyl)propanamide], the IC50 on CK2α was 68.3 nM; on CLK2 it was 2370 nM; on intracellular CK2α, 4980 nM.

For `FC(F)(F)Oc1ccc(CNCCc2ncc(CCNc3cc(-n4cnnc4)cc4[nH]ncc34)o2)cc1Cl` [Example 64, N-(2-(2-(2-((3-chloro-4-(trifluoromethoxy)benzyl)amino)ethyl)oxazol-5-yl)ethyl)-6-(4H-1,2,4-triazol-4-yl)-1H-indazol-4-amine], the IC50 was 7.88 nM on CK2α, 350 nM at CLK2 and 1840 nM at intracellular CK2α.

Turning to `O=C(Cc1nnc(CCNCc2ccc(OC(F)(F)F)c(Cl)c2)[nH]1)Nc1cc(-n2cnnc2)cc2[nH]ncc12` [Example 65, N-(6-(4H-1,2,4-triazol-4-yl)-1H-indazol-4-yl)-2-(5-(2-((3-chloro-4-_(trifluoromethoxy)benzyl)amino)ethyl)-4H-1,2,4-triazol-3-yl)acetamide], the IC50 on CK2α was 163 nM; at CLK2, 4160 nM; on intracellular CK2α it was greater than 50000 nM.

For the compound `O=C(CCNCCCNCc1ccc(OC(F)(F)F)c(Cl)c1)Nc1cc(-n2cnnc2)cc2[nH]ncc12` [Example 66, N-(6-(4H-1,2,4-triazol-4-yl)-1H-indazol-4-yl)-3-((3-((3-chloro-4-(trifluoromethoxy)benzyl)amino)propyl)amino)propanamide], the IC50 at CK2α is 176 nM; at CLK2, 1000 nM; at intracellular CK2α, 15600 nM.

As to `FC(F)(F)Oc1ccc(CNCCCNCCCOc2cc(-n3cnnc3)cc3[nH]ncc23)cc1Cl` [Example 67, N1-(3-((6-(4H-1,2,4-triazol-4-yl)-1H-indazol-4-yl)oxy)propyl)-N3-(3-chloro-4-(trifluoromethoxy)benzyl)propane-1,3-diamine], the IC50 was determined as 278 nM on CK2α, 4160 nM at CLK2 and 13800 nM on intracellular CK2α.

As for `Cn1c(CNCCCCOCCNc2cc(-n3cnnc3)cc3[nH]ncc23)nc2ccc(Cl)cc21` [Example 68, N-(2-(4-(((6-chloro-1-methyl-1H-benzo[d]imidazol-2-yl)methyl)amino)butoxy)ethyl)-6-(4H-1,2,4-triazol-4-yl)-1H-indazol-4-amine], the values for the IC50 on CK2α, on CLK2 and on intracellular CK2α were 136 nM, 566 nM and 18700 nM, respectively.

With `FC(F)(F)Oc1ccc(CNCCCOCCCOc2cc(-n3cnnc3)cc3[nH]ncc23)cc1Cl` [Example 69, 3-(3-((6-(4H-1,2,4-triazol-4-yl)-1H-indazol-4-yl)oxy)propoxy)-N-(3-chloro-4-(trifluoromethoxy)benzyl)propan-1-amine], the IC50 on CK2α was determined as 46.6 nM; on CLK2 it was 688 nM; on intracellular CK2α, 2850 nM.

In the case of `O=C(CCOCCCNCc1ccc(OC(F)(F)F)c(Cl)c1)Nc1cc(-n2cnnc2)cc2[nH]ncc12` [Example 70, N-(6-(4H-1,2,4-triazol-4-yl)-1H-indazol-4-yl)-3-(3-((3-chloro-4-(trifluoromethoxy)benzyl)amino)propoxy)propanamide], the IC50 at CK2α was 256 nM; at CLK2, 1520 nM; on intracellular CK2α, greater than 50000 nM.
